Laboratory results from US8143221B2, “Use of ADNF polypeptides for treating peripheral neurotoxicity” (Ramot at Tel-Aviv University, priority 2005, dated 2012).
Ends that are not written are not given here.

Assays:
[1] = test system: peripheral neurotoxicity induced by the taxane taxol; test: Rota-rod test in taxol-treated rats; settings: Experiment 2: rats, taxol cumulative 9 mg/kg i.p.; five days after the first taxol injection
Procedure: In the Rota-rod test a rodent is placed on a rotating rod. […] The time spent on the rota-rod without falling was recorded. Impaired animals fall earlier from the rota-rod.
(§3) Forty Sprague-Dawley rats (eight weeks old) were divided into four groups that received the following treatments: a) 10% Cremophor EL in Saline; b) taxol for a cumulative dose of 5.6 mg/kg; c) taxol for a cumulative dose of 5.6 mg/kg+NAP 2.5 μg/kg/Day; or d) taxol for a cumulative dose of 5.6 mg/kg+NAP 25 μg/kg/Day. The taxol was reconstituted in a vehicle of 10% Cremophor EL in Saline.
(§4) Taxol treatments were administered four times intraperitoneally (i.p.) on nonconsecutive days in a volume of 250 μl each time. NAP was administered daily on 8 consecutive days from the first day of taxol injection (with a 2 day brake on the weekend).
Rats were tested in the rota-rod and plantar test. The rota-rod test is described above and assesses muscle strength. […] Statistical differences were tested by ANOVA and by t-test.
Fifteen Sprague-Dawley Rats (seven weeks old) were randomly divided into three groups that received the following treatments: a) 10% Cremophor EL in Saline; b) taxol for a cumulative dose of 9 mg/kg; or c) taxol for a cumulative dose of 9 mg/kg+2.5 μg/kg/Day NAP. The taxol was reconstituted in a vehicle of 10% Cremophor EL in Saline. […]

[2] = test system: peripheral neurotoxicity induced by the taxane taxol; test: Plantar test (thermal hyperalgesia) in taxol-treated rats
Procedure: as §3, §4
Rats were tested in the rota-rod and plantar test. […] The plantar test evaluates thermal hyperalgesia. For the plantar test, each rat was placed in a clear plastic chamber with a plastic floor and allowed a short period to acclimatize to the new environment (approximately 2-5 min). The animals were then challenged with a radiant Infrared (IR) heat source directed at the plantar surface of the hind paw from below (7371 Plantar Test, Ugo Basile). The withdrawal latency of both the ipsilateral and contralateral hind paw was evaluated. The infrared intensity was set at IR55 and the maximum length of exposure to the IR source was eighteen seconds. Statistical differences were tested by ANOVA and by t-test. […]

[3] = test system: peripheral neurotoxicity induced by the vinca alkaloid vincristine; test: Motor evaluation: ability to exit a circle 30 cm in diameter within 20 seconds, vincristine-treated rats; assay type: in vivo; settings: vincristine 0.175 mg/kg i.p. alone vs control
Procedure: (§1) Rats (200-300 g), divided into 4 groups of 10, were injected with vincristine sulfate dissolved in saline. Stock concentration was 2 mg/ml, pH 4.5-5.2. Aliquots of the drug were diluted daily in saline to concentrations of 0.175 mg/ml and were administered i.p. at a dose of 0.175 mg/kg. NAP was prepared at 0.1 mg/1.3 ml in saline (0.9% NaCl) and about 0.1 ml was injected subcutaneously to a ˜300 g rat to achieve a dose of 25 microgram/kg (exact calculations were made based on the daily body weights). For 2.5 microgram/kg, the injection solution was diluted by 10 and again 0.1 ml was injected per rat. Treatments took place daily (5 days a week) for ˜3 weeks (20 days) with the dosage calculated on daily body weight. NAP was administered at the same time as the vincristine, in the dosage and the amount where indicated the following schedule.
(§2) Four groups were evaluated: 1) Control, saline (n=10), 2) Vincristine (i.p.) 0.175 mg/kg (n=10), 3) Vincristine (i.p.) 0.175 mg/kg+NAP (s.c.) 2.5 microgram/kg (n=10), and 4) Vincristine (i.p.) 0.175 mg/kg+NAP (s.c.) 25 microgram/kg (n=10).
Motor examination was performed on days 6, 9, 13 and 24 after the initiation of the vincristine injections. Rats were examined after vincristine injection, with the use of a motor disability scale. […]
Animals were assessed based on their failure to walk out of a circle 30 cm in diameter within 20 seconds.

[4] = test system: peripheral neurotoxicity induced by the vinca alkaloid vincristine; test: Rota-rod test in vincristine-treated rats; assay type: in vivo; settings: vincristine 0.175 mg/kg i.p. alone vs saline control, P<0.01
Procedure: as §1, §2
After a week cessation of treatment, a final boost of vincristine was given i.p. daily for three days and NAP at 25 microgram/kg was given intranasally to group number 4 only. […] For behavioral testing baseline toxin effects were evaluated 2-23 days following the first injection, using the testing procedures below: […]

[5] = test system: peripheral neurotoxicity induced by the vinca alkaloid vincristine; test: Olfactory discrimination test in vincristine-treated rats; assay type: in vivo; settings: vincristine alone (group 2)
Procedure: Treatments took place daily (5 days a week) for ˜3 weeks (20 days) with the dosage calculated on daily body weight. NAP was administered subcutaneously at the same time as the vincristine was administered intraperitoneally, in the dosage and the amount indicated in the schedule above. After a week cessation of treatment a final boost of vincristine was given i.p. daily for three days and NAP at 25 microgram/kg was given intranasally to group number 4 only. The intranasal formulation followed the previous experiment (Alcalay et al., infra). An olfactory discrimination test was performed on each of the three days of NAP treatment during the final boost period. (Macknin et al., Brain Res. 1000, 174-78 (2004)) The odors tested were 1) Deionized water (ddw) and 2) Scented extracts, i.e., vanilla/almond.
Overall the experiment included 3 odors (water and two scented extracts) each encompassing 3 trials of 2 minutes. New dipped tip was introduced at the beginning of each trial for the different scents.
Thirty minutes before the testing the subjects were housed in separate cages and a cotton tip dipped in water was placed hanging into the cage. During these 30 minutes the animal was acclimatized to the tip and the cage. Thereafter, the cotton tip was dipped in the desired scent and placed hanging from the top of the cage. […]

[6] = test system: tubulin; settings: cited from earlier work
[7] = test system: neurons of the central nervous system; settings: in-vitro assays and in vivo disease models; cited from earlier work
[8] = test system: peripheral neurotoxicity under chemotherapy including L-OHP, FA/5-FU; test: Randomized trial with or without NAP under chemotherapy with oxaliplatin (L-OHP), FA/5-FU; assay type: in vivo; settings: patients with ACRC, NAP 15 mg/45-70 kg i.v. before L-OHP, vs control group
Procedure: Aim of the study: Chemotherapy with L-OHP, FA, 5-FU has a high activity in advanced colorectal cancer (ACRC). The main dose-limiting toxicity of chemotherapy with L-OHP is a peripheral sensory neuropathy. In this study the patients (pts) will receive a chemotherapy with L-OHP, FA and 5-FU with or without NAP. The question is whether a reduction of side effects of neurotoxicity is seen after application of NAP.
We include 27 patients with ACRC. In arm A chemotherapy is applied with L-OHP 85 mg/m2 d1, FA 500 mg/m2 d1+d2 and 5-FU 4000 mg/m2 over 48 h continuous infusion as biweekly schedule. In arm B, 15 mg/45-70 kg NAP is given over 10 min i.v. before application of the same schedule of chemotherapy. Investigation of toxicity, neurological examination and a blood count is performed before every cycle. For a daily documentation of the side effects every patient receives a questionnaire.

CC(=O)O[C@H]1C(=O)[C@@]2(C)[C@H]([C@H](OC(=O)c3ccccc3)[C@]3(O)C[C@H](OC(=O)[C@H](O)[C@@H](NC(=O)c4ccccc4)c4ccccc4)C(C)=C1C3(C)C)[C@]1(OC(C)=O)CO[C@@H]1C[C@@H]2O [taxol]
Rota-rod test: neuromuscular function, toxin alone [1]: a significant effect on neuromuscular function | Plantar test: thermal hyperalgesia, toxin alone ([2]; Experiment 1: rats, taxol cumulative 5.6 mg/kg i.p., after the last taxol injection on day three): exhibited thermal hyperalgesia | Plantar test: thermal hyperalgesia, toxin alone ([2]; Experiment 2: rats, taxol cumulative 9 mg/kg i.p., eight days after the last Taxol injection): exhibited a significant thermal hyperalgesia

CC[C@]1(O)C[C@H]2CN(CCc3c([nH]c4ccccc34)[C@@](C(=O)OC)(c3cc4c(cc3OC)N(C=O)[C@H]3[C@@](O)(C(=O)OC)[C@H](OC(C)=O)[C@]5(CC)C=CCN6CC[C@]43[C@@H]65)C2)C1 [vincristine]
Ability to exit a circle 30 cm in diameter within 20 seconds, toxin alone vs control ([3]; P<0.001): significantly reduced | Ability to exit a circle 30 cm in diameter within 20 seconds, toxin alone vs control ([3]; P<0.001, listed as Vincristine): significantly worse as compared to control animals | Rota-rod performance, toxin alone vs control [4]: significant difference between the vincristine treated animals and the control animals indicating impairment | Time spent with new odors: olfaction capacity, toxin alone [5]: did not show any initial interest in the new smell

SALLRSIPA
Interaction with tubulin [6]: interact with tubulin | Neuron survival in response to various insults [7]: keep neurons of the central nervous system alive

CC[C@H](C)[C@H](NC(=O)[C@H](CO)NC(=O)[C@@H](NC(=O)[C@@H]1CCCN1C(=O)[C@H](C)NC(=O)[C@@H](N)CC(N)=O)C(C)C)C(=O)N1CCC[C@H]1C(=O)N[C@@H](CCC(N)=O)C(=O)O [NAP, Asn-Ala-Pro-Val-Ser-Ile-Pro-Gln]
Frequency of grade II/III leucopenia [8]: occurs at a lower frequency than in the control group

B1: ADNP: full length ADNF III, activity-dependent neuroprotective protein (protein, UniProt Q9H2P0 1-1102, looked up)
chain: MFQLPVNNLGSLRKARKTVKKILSDIGLEYCKEHIEDFKQFEPNDFYLKNTTWEDVGLWDPSLTKNQDYRTKPFCCSACPFSSKFFSAYKSHFRNVHSEDFENRILLNCPYCTFNADKKTLETHIKIFHAPNASAPSSSLSTFKDKNKNDGLKPKQADSVEQAVYYCKKCTYRDPLYEIVRKHIYREHFQHVAAPYIAKAGEKSLNGAVPLGSNAREESSIHCKRCLFMPKSYEALVQHVIEDHERIGYQVTAMIGHTNVVVPRSKPLMLIAPKPQDKKSMGLPPRIGSLASGNVRSLPSQQMVNRLSIPKPNLNSTGVNMMSSVHLQQNNYGVKSVGQGYSVGQSMRLGLGGNAPVSIPQQSQSVKQLLPSGNGRSYGLGSEQRSQAPARYSLQSANASSLSSGQLKSPSLSQSQASRVLGQSSSKPAAAATGPPPGNTSSTQKWKICTICNELFPENVYSVHFEKEHKAEKVPAVANYIMKIHNFTSKCLYCNRYLPTDTLLNHMLIHGLSCPYCRSTFNDVEKMAAHMRMVHIDEEMGPKTDSTLSFDLTLQQGSHTNIHLLVTTYNLRDAPAESVAYHAQNNPPVPPKPQPKVQEKADIPVKSSPQAAVPYKKDVGKTLCPLCFSILKGPISDALAHHLRERHQVIQTVHPVEKKLTYKCIHCLGVYTSNMTASTITLHLVHCRGVGKTQNGQDKTNAPSRLNQSPSLAPVKRTYEQMEFPLLKKRKLDDDSDSPSFFEEKPEEPVVLALDPKGHEDDSYEARKSFLTKYFNKQPYPTRREIEKLAASLWLWKSDIASHFSNKRKKCVRDCEKYKPGVLLGFNMKELNKVKHEMDFDAEWLFENHDEKDSRVNASKTADKKLNLGKEDDSSSDSFENLEEESNESGSPFDPVFEVEPKISNDNPEEHVLKVIPEDASESEEKLDQKEDGSKYETIHLTEEPTKLMHNASDSEVDQDDVVEWKDGASPSESGPGSQQVSDFEDNTCEMKPGTWSDESSQSEDARSSKPAAKKKATMQGDREQLKWKNSSYGKVEGFWSKDQSQWKNASENDERLSNPQIEWQNSTIDSEDGEQFDNMTDGVAEPMHGSLAGVKLSSQQA
modifications: full-length
Interaction with tubulin [6]: interact with tubulin
